The text below walks through data of patent publication US12194084B2 (priority 2019, dated 2025).

The test system of this experiment is CD1b-restricted MA-specific TCR transgenic DN1 T cells. The experiment is classed as cell-based, mouse.

Consider mycolic acid [MA], for which the “IFN-γ production by DN1 T cells to MA-pulsed DC (ELISPOT)” value is reported as “produced IFN-γ” and the “activation of DN1 T cells (CD69, CD25, IFN-γ)” value was “able to activate DN1 T cells”.
